# Test results as given in article PMC8401035, “Synthesis and In Vitro Characterization of Glycopeptide Drug Candidates Related to PACAP1–23” (Molecules, 2021).
# Read-outs that look alike come from different tables or passages of the source. Non-standard residues stand in square brackets, D forms with d. Residues, ends and D or L forms follow the SMILES beside them. *: point of attachment. X1 = OC[C@H]1O[C@@H](O[C@H]2[C@H](O)[C@@H](O)[C@H](*)O[C@@H]2CO)[C@H](O)[C@@H](O)[C@H]1O; Nva = CCC[C@H](N)C(=O)O; Sar = CNCC(=O)O
# What was measured:
# human PAC1 = molecular target: T1, human PAC1 (Homo sapiens, UniProt P41586); experiment: cAMP accumulation assay in PAC1-CHO cells; assay type: cell-based; conditions: for EC50: cAMP stimulation, CHO cells stably expressing human PAC1, 500 μM IBMX, 10 min agonist at 37 °C, 3H-cAMP/PKA competition read-out, Table 3, control has two values (two experiments)
# T1 construct: 3xHA (N)
# T1 sequence (P41586 21-468): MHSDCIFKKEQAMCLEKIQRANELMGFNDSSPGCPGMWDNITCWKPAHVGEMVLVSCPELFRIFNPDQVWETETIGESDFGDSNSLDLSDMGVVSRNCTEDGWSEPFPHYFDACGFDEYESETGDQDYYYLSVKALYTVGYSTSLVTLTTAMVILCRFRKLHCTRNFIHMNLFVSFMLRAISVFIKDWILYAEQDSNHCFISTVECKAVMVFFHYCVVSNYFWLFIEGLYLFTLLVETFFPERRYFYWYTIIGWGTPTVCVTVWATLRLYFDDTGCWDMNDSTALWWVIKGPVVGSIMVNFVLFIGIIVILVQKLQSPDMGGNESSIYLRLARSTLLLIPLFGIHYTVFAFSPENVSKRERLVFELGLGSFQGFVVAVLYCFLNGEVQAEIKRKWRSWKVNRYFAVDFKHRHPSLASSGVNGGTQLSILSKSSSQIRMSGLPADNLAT
# Protocol: In Vitro cAMP Accumulation
# (§1) DMEM:F12 (1:1)medium, incubated
# (§2) Serial dilutions of different
# human VPAC2 = molecular target: T2, human VPAC2 (Homo sapiens, UniProt P41587); experiment: cAMP accumulation assay in VPAC2-CHO cells; assay type: cell-based
# T2 construct: 3xHA (N)
# T2 sequence (P41587 24-438): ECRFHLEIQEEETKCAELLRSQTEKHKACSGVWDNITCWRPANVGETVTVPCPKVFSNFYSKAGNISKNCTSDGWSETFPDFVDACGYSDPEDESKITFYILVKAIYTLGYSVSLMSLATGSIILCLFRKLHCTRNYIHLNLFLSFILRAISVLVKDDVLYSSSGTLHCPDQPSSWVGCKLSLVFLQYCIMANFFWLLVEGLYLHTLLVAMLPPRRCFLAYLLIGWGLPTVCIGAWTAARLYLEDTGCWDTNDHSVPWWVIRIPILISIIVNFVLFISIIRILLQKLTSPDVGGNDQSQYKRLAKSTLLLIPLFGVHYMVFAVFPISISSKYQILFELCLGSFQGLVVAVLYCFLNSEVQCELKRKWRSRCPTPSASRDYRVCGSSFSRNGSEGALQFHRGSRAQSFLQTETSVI
# Protocol: as §1, §2
# human VPAC1 = molecular target: T3, human VPAC1 (Homo sapiens, UniProt P32241); experiment: cAMP accumulation assay in VPAC1-CHO cells; conditions: for Emax: read-out: VPAC1 EMAX
# T3 sequence (P32241 31-457): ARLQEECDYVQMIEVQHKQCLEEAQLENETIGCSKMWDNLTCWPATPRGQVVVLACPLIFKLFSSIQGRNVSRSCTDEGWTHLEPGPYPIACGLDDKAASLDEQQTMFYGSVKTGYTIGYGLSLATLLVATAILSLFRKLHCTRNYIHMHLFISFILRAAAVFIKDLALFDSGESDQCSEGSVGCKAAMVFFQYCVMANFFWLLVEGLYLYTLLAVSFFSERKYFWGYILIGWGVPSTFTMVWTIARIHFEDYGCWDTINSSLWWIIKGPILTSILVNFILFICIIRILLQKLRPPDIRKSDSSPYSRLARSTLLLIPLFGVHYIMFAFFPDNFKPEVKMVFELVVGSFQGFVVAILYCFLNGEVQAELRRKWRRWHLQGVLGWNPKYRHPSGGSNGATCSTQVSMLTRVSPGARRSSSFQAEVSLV
# [1] = HA-VPAC2-CHO passage #28, 20,000 cells/well, dilutions from 10 uM, single experiment in duplicate, supplement page S13, read-out: VPAC2-CHO EC50(nM), supplement curve fit
# [2] = cAMP stimulation, CHO cells stably expressing human VPAC2, 500 μM IBMX, 10 min agonist at 37 °C, Table 3, NC = No convergence, read-out: VPAC2 EC50
SMILES,Emax (human PAC1) [%],EC50 (human PAC1) [nM],Emax (human VPAC2) [%],EC50 (human VPAC2; [1]) [nM],EC50 (human VPAC1) [nM],Emax (human VPAC1) [%],selectivity for PAC1 over VPAC1 (human PAC1; ratio of cAMP EC50 values (VPAC1/PAC1)),selectivity for PAC1 over VPAC2 (human PAC1; ratio of cAMP EC50 values (VPAC2/PAC1)),EC50 (human VPAC2; [2]) [nM]
CCC[C@H](NC(=O)[C@H](CCC(N)=O)NC(=O)[C@H](CCCCN)NC(=O)[C@H](CCCNC(=N)N)NC(=O)[C@H](Cc1ccc(O)cc1)NC(=O)[C@H](CCCNC(=N)N)NC(=O)[C@H](CO)NC(=O)[C@H](Cc1ccc(O)cc1)NC(=O)[C@H](CO)NC(=O)[C@H](CC(=O)O)NC(=O)[C@@H](NC(=O)[C@H](Cc1ccccc1)NC(=O)[C@@H](NC(=O)CNC(=O)[C@H](CC(=O)O)NC(=O)[C@H](CO)NC(=O)[C@@H](N)Cc1c[nH]cn1)[C@@H](C)CC)[C@@H](C)O)C(=O)N[C@@H](C)C(=O)N[C@H](C(=O)N[C@@H](CCCCN)C(=O)N[C@@H](CCCCN)C(=O)N[C@@H](Cc1ccc(O)cc1)C(=O)N[C@@H](CC(C)C)C(=O)N[C@@H](CO)C(N)=O)C(C)C [Compound 1],198,2.2,111,576,5.2,42,–,–,–
CCC[C@H](NC(=O)[C@H](CCC(N)=O)NC(=O)[C@H](CCCCN)NC(=O)[C@H](CCCNC(=N)N)NC(=O)[C@H](Cc1ccc(O)cc1)NC(=O)[C@H](CCCNC(=N)N)NC(=O)[C@H](CO)NC(=O)[C@H](Cc1ccc(O)cc1)NC(=O)[C@H](CO)NC(=O)[C@H](CC(=O)O)NC(=O)[C@@H](NC(=O)[C@H](Cc1ccccc1)NC(=O)[C@@H](NC(=O)CNC(=O)[C@H](CC(=O)O)NC(=O)[C@H](CO)NC(=O)[C@@H](N)Cc1c[nH]cn1)[C@@H](C)CC)[C@@H](C)O)C(=O)N[C@@H](C)C(=O)N[C@H](C(=O)N[C@@H](CCCCN)C(=O)N[C@@H](CCCCN)C(=O)N[C@@H](Cc1ccc(O)cc1)C(=O)N[C@@H](CC(C)C)C(=O)N[C@@H](CO[C@@H]1O[C@H](CO)[C@@H](O)[C@H](O)[C@H]1O)C(N)=O)C(C)C [Compound 2],181,0.64,110,577,37,104,~ 58 fold,~ 886 fold,–
CCC[C@H](NC(=O)[C@H](CCC(N)=O)NC(=O)[C@H](CCCCN)NC(=O)[C@H](CCCNC(=N)N)NC(=O)[C@H](Cc1ccc(O)cc1)NC(=O)[C@H](CCCNC(=N)N)NC(=O)[C@H](CO)NC(=O)[C@H](Cc1ccc(O)cc1)NC(=O)[C@H](CO)NC(=O)[C@H](CC(=O)O)NC(=O)[C@@H](NC(=O)[C@H](Cc1ccccc1)NC(=O)[C@@H](NC(=O)CNC(=O)[C@H](CC(=O)O)NC(=O)[C@H](CO)NC(=O)[C@@H](N)Cc1c[nH]cn1)[C@@H](C)CC)[C@@H](C)O)C(=O)N[C@@H](C)C(=O)N[C@H](C(=O)N[C@@H](CCCCN)C(=O)N[C@@H](CCCCN)C(=O)N[C@@H](Cc1ccc(O)cc1)C(=O)N[C@@H](CC(C)C)C(=O)N[C@@H](CO[C@@H]1O[C@H](CO)[C@@H](O)[C@H](O)[C@H]1O)C(=O)N[C@@H](CO[C@@H]1O[C@H](CO)[C@@H](O)[C@H](O)[C@H]1O)C(N)=O)C(C)C [Compound 3],152,1.9,128,–,26,147,–,–,7370
CCC[C@H](NC(=O)[C@H](CCC(N)=O)NC(=O)[C@H](CCCCN)NC(=O)[C@H](CCCNC(=N)N)NC(=O)[C@H](Cc1ccc(O)cc1)NC(=O)[C@H](CCCNC(=N)N)NC(=O)[C@H](CO)NC(=O)[C@H](Cc1ccc(O)cc1)NC(=O)[C@H](CO)NC(=O)[C@H](CC(=O)O)NC(=O)[C@@H](NC(=O)[C@H](Cc1ccccc1)NC(=O)[C@@H](NC(=O)CNC(=O)[C@H](CC(=O)O)NC(=O)[C@H](CO)NC(=O)[C@@H](N)Cc1c[nH]cn1)[C@@H](C)CC)[C@@H](C)O)C(=O)N[C@@H](C)C(=O)N[C@H](C(=O)N[C@@H](CCCCN)C(=O)N[C@@H](CCCCN)C(=O)N[C@@H](Cc1ccc(O)cc1)C(=O)N[C@@H](CC(C)C)C(=O)N[C@@H](CO[C@@H]1O[C@H](CO)[C@@H](O[C@@H]2O[C@H](CO)[C@H](O)[C@H](O)[C@H]2O)[C@H](O)[C@H]1O)C(N)=O)C(C)C [Compound 4],174,1.8,169,–,21,118,–,–,1940
CCC[C@H](NC(=O)[C@H](CCC(N)=O)NC(=O)[C@H](CCCCN)NC(=O)[C@H](CCCNC(=N)N)NC(=O)[C@H](Cc1ccc(O)cc1)NC(=O)[C@H](CCCNC(=N)N)NC(=O)[C@H](CO)NC(=O)[C@H](Cc1ccc(O)cc1)NC(=O)[C@H](CO)NC(=O)[C@H](CC(=O)O)NC(=O)[C@@H](NC(=O)[C@H](Cc1ccccc1)NC(=O)[C@@H](NC(=O)[C@H](C)NC(=O)[C@H](CC(=O)O)NC(=O)[C@H](CO)NC(=O)[C@@H](N)Cc1c[nH]cn1)[C@@H](C)CC)[C@@H](C)O)C(=O)N[C@@H](C)C(=O)N[C@H](C(=O)N[C@@H](CCCCN)C(=O)N[C@@H](CCCCN)C(=O)N[C@@H](Cc1ccc(O)cc1)C(=O)N[C@@H](CC(C)C)C(=O)N[C@@H](CO[C@@H]1O[C@H](CO)[C@@H](O[C@@H]2O[C@H](CO)[C@H](O)[C@H](O)[C@H]2O)[C@H](O)[C@H]1O)C(N)=O)C(C)C [Compound 5],181,7,139,–,38,124,–,–,321
CCC[C@H](NC(=O)[C@H](CCC(N)=O)NC(=O)[C@H](CCCCN)NC(=O)[C@H](CCCNC(=N)N)NC(=O)[C@H](Cc1ccc(O)cc1)NC(=O)[C@H](CCCNC(=N)N)NC(=O)[C@H](CO)NC(=O)[C@H](Cc1ccc(O)cc1)NC(=O)[C@H](CO)NC(=O)[C@H](CC(=O)O)NC(=O)[C@@H](NC(=O)[C@H](Cc1ccccc1)NC(=O)[C@@H](NC(=O)CN(C)C(=O)[C@H](CC(=O)O)NC(=O)[C@H](CO)NC(=O)[C@@H](N)Cc1c[nH]cn1)[C@@H](C)CC)[C@@H](C)O)C(=O)N[C@@H](C)C(=O)N[C@H](C(=O)N[C@@H](CCCCN)C(=O)N[C@@H](CCCCN)C(=O)N[C@@H](Cc1ccc(O)cc1)C(=O)N[C@@H](CC(C)C)C(=O)N[C@@H](CO[C@@H]1O[C@H](CO)[C@@H](O[C@@H]2O[C@H](CO)[C@H](O)[C@H](O)[C@H]2O)[C@H](O)[C@H]1O)C(N)=O)C(C)C [Compound 6] (H-HSD[Sar]IFTDSYSRYRKQ[Nva]AVKKYLS(X1)-NH2),134,67,–,–,195,107,–,–,–
